Reference: paper PMC6277434, “Discovery of a potent HMG-CoA reductase degrader that eliminates statin-induced reductase accumulation and lowers cholesterol” (Nature Communications, 2018)

Columns and labels:
[1] = target: T1, HMGCR (Cricetulus griseus, UniProt P00347); assay: Immunoblotting of HMGCR in SRD-15 (Insig-1 and Insig-2-deficient) cells; type: cell-based, Chinese hamster; conditions: SRD-15 cells
T1 construct: endogenous in cells; host or cells: CHO-7, CHG, SRD-13A, SRD-15
T1 sequence (P00347 1-887): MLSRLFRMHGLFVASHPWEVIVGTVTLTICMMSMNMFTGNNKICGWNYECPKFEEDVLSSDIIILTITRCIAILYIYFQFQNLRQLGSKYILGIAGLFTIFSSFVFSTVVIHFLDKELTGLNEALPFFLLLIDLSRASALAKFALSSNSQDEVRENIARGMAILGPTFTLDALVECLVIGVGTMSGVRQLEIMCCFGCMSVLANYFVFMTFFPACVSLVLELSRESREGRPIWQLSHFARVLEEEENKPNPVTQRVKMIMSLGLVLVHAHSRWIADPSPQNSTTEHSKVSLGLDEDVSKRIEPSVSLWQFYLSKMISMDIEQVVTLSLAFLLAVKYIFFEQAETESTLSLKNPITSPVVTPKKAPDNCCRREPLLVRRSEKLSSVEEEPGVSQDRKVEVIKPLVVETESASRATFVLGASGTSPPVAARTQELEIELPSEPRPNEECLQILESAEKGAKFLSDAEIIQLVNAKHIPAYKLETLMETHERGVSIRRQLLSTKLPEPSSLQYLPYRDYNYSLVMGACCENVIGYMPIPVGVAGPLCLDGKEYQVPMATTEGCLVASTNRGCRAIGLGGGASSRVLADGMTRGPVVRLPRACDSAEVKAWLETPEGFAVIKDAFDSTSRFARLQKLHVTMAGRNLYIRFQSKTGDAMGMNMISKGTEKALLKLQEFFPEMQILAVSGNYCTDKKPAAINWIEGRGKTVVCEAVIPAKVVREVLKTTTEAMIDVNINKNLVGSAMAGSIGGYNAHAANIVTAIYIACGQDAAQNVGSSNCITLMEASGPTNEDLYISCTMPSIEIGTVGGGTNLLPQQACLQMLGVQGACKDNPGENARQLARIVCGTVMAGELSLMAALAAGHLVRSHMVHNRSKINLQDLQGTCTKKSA
Procedure: CHO-7 (Chinese hamster ovary cell, a clone of CHO-K1 cell line selected for growth in LPDS) and Huh7 (a human hepatocellular carcinoma cell line), SRD-13A (a Scap-deficient CHO-7 cell line) and SRD-15 (an Insig-1 and Insig-2-deficient CHO-7 cell line) were generous gifts from Russell Debose-Boyd at UT Southwestern Medical Center, USA. All cells were grown in a monolayer at 37 °C with 5% CO2. Huh7 cells were maintained in medium A supplemented with 10% FBS. CHO-7 and SRD-15 cells were maintained in medium B supplemented with 5% FBS. SRD-13A cells were maintained in medium B with 5% FBS, 5 μg ml^−1 cholesterol, 1 mM sodium mevalonate, 10 μM sodium oleate. No cell lines used in this study were found in the database of commonly misidentified cell lines that is maintained by ICLAC and NCBI Biosample. […]
Cells were harvested and homogenized in the RIPA buffer (50 mM Tris-HCl, pH 8.0, 150 mM NaCl, 2 mM MgCl2, 1.5% NP-40, 0.1% SDS, and 0.5% sodium deoxycholate) supplemented with protease cocktail inhibitor, 10 μM MG-132, 10 μg ml^−1 leupeptin and 1 mM phenylmethylsulfonyl fluoride. The protein concentrations of lysates were determined using BCA method (Beyotime). […] Western blot images were captured by Amersham Imager 600 (GE Healthcare), and integrated optical intensities of each band were quantified by Image-Pro Plus 6 software (Media Cybernetics). […]

[2] = test system: Hmgcr mRNA; assay: RT-qPCR of exogenous WT and mutated Hmgcr mRNA in Huh7 cells; type: cell-based; conditions: lovastatin
Procedure: Cells were treated as described in corresponding figure legends, then total RNA was extracted from cells or mouse livers using TRI Reagent (T9424, Sigma-Aldrich). Equal amounts of RNA from cells or mice receiving the same treatment were pooled were used for cDNA synthesis with oligo dT and reverse transcriptase MLV (Promega). Gene expression was analyzed by quantitative real-time PCR on a Stratagene Mx30005PTM Q-PCR Systems. The primers used were listed in Supplementary Tables 2–4.
a CHO-7 cells were treated with or without 1 μM lovastatin in medium B with 5%
LDPS and 50 μM mevalonate for 16 h, and harvested for total RNA isolation and
RT-qPCR. Quantifications of the relative mRNA levels of indicated SREBP target
(1 picture or pasted object on this page, not shown here)

## C=CCC(O)(CC=C)CCCC(C)C1CCC2C3C(O)C=C4C(C)(C)C(O)CCC4(C)C3CCC12C (centres unmarked) [Cmpd 81]
[1]
  Cmpd 81-induced disappearance of endogenous HMGCR in cells lacking Insig-1 and Insig-2: completely abolished

## CC[C@H](C)C(=O)O[C@H]1C[C@@H](C)C=C2C=C[C@H](C)[C@H](CC[C@@H]3C[C@@H](O)CC(=O)O3)[C@H]21 [Lovastatin, lovastatin]
[2]
  mRNA levels of both WT and mutated Hmgcr: did not show obvious change
